Structures can show the parent of a compound that is named as a salt.
Columns and labels:
[1] = biological target: T1, Tubulin purified from pig brains (Sus scrofa, UniProt P02550+P02554); test: Assessment of the inhibition of tubulin polymerization (turbidimetry at 350 nm); format: biochemical; conditions: concentration which inhibits the rate of polymerization by 50%; tubulin 1 mg/ml, 37° C.; read-out: Inhibition of tubulin polymerization IC 50
T1 construct: Tubulin is purified from pig brains according to published methods; from tissue; host or cells: pig brain
T1 sequence (P02550 whole entry): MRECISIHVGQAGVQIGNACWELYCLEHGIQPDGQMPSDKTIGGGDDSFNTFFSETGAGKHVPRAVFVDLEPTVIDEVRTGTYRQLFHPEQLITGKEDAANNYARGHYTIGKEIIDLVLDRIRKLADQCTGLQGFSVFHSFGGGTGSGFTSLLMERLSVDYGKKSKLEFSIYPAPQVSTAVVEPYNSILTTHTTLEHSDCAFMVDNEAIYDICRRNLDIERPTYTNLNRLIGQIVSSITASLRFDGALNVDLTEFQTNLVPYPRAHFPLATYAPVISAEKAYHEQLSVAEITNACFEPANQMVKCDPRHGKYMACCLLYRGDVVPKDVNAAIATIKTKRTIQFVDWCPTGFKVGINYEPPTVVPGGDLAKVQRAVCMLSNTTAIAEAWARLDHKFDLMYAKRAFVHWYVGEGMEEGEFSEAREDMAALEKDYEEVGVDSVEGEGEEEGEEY
T1 sequence (P02554 whole entry): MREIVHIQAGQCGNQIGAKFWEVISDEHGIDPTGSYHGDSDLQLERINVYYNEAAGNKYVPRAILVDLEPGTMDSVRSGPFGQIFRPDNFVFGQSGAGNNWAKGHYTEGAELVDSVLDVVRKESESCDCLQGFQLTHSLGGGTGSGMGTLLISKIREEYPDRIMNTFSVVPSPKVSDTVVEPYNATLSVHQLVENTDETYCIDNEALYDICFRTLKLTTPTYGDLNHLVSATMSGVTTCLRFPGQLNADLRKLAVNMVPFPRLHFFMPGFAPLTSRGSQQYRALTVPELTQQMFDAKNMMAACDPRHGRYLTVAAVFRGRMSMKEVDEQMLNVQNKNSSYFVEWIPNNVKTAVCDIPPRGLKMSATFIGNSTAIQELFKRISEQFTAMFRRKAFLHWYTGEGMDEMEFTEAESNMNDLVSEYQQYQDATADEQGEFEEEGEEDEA
Experimental: Assessment of the Inhibition of Tubulin Polymerization
Tubulin is purified from pig brains according to published methods (Shelanski et al., 1973, Proc. Natl. Acad. Sci. USA, 70, 765-768. Weingarten et al., 1975, Proc. Natl. Acad. Sci. USA, 72, 1858-1862). Briefly, the brains are ground and centrifuged in an extraction buffer. The tubulin, present in the extract supernatant is subjected to two successive cycles of polymerization at 37° C. and depolymerization at 4° C., before being separated from the MAPs (Microtubule Associated Proteins) by chromatography on a phosphocellulose P11 column (Whatman). The tubulin thus isolated is more than 95% pure. It is stored in a buffer known as RB/2 30% glycerol, the composition of which is 50 mM MES-NaOH [2-(N-morpholino)ethanesulfonic acid], pH 6.8; 0.25 mM MgCl2; 0.5 mM EGTA; 30% (v/v) glycerol, 0.2 mM GTP (guanosine 5′-triphosphate).
The polymerization of the tubulin into microtubules is monitored by turbidimetry as follows: the tubulin is adjusted to a concentration of 10 μm (1 mg/ml) in the RB/2 30% glycerol buffer, to which are added 1 mM GTP and 6 mM MgCl2. The polymerization is initiated by increasing the temperature from 6° C. to 37° C. in a cuvette with a 1 cm optical pathlength, placed in a UVIKON 931 spectrophotometer (Kontron) equipped with a thermostatically-regulated cuvette holder. The increase in turbidity of the solution is monitored at 350 nm.
The products are dissolved at 10 mM in DMSO and added at variable concentrations (0.5 to 10 μm) to the tubulin solution before polymerization. The IC50 is defined as the concentration of the product which inhibits the rate of polymerization by 50%.

HCT116 cells = test: Inhibition of proliferation of the HCT116 human colon tumor line ([14C]-thymidine incorporation); format: cell-based; conditions: HCT-116, 48 hours incubation at 37° C., read-out: Inhibition of HCT116 proliferation IC 50
Experimental: Test for Determining the Inhibition of Proliferation of the HCT116 Human Colon Tumor Line
The proliferation of HCT116 cells is evaluated by mesuring the incorporation of [^14C]-thymidine in the following way. The HCT166 cells (from the ATCC) are cultured in a DMEM medium (Gibco) which contains 10% of fetal calf serum and antibiotics (1% penicillin, 1% streptomycin). To perform the proliferation test, the cells are seeded into 96-well cytostar microplates (Amersham) at the rate of 5000 cells per well. The [^14C]-thymidine (0.1 μCi/well) and the products to be evaluated are subsequently added. Variable concentrations of products up to 10 μM are used; the DMSO (solvent used to dissolve the products) should not exceed 0.5% in the medium. 48 hours after incubation at 37° C., the radioactivity incorporated into the cells is measured by counting the plate in a Tri-Lux counter (Wallac). The IC50 is defined as the concentration of product which reduces the radioactivity by 50% compared with an untreated control. A product with an IC50 of less than 10 μm is regarded as cytotoxic.

Row | SMILES | IC50 [1] | IC50 (HCT116 cells)
1 | O=C(c1[nH]c(S)nc1-c1ccccc1)N1CCN(c2cccc(CO)c2)CC1 [Example 78, [4-(3-Hydroxymethylphenyl)piperazin-1-yl](2-mercapto-4-phenyl-1H-imidazol-5-yl)methanone] | 725 nM | 244 nM
2 | NC(=O)c1cccc(N2CCN(C(=O)c3cn(CCO)cc3-c3ccccc3)CC2)c1 [Example 66, 3-[4-(1-Hydroxyethyl-4-phenyl-1H-pyrrol-3-ylcarbonyl)piperazin-1-yl]benzamide] | 2430 nM | 2030 nM
3 | CC(=O)Nc1cccc(N2CCN(C(=O)c3[nH]cnc3-c3ccccc3)CC2)c1 [Example 12, [4-(3-Acetylaminophenyl)piperazin-1-yl](4-phenyl-1H-imidazol-5-yl)methanone] | 3500 nM | 1190 nM
4 | N#Cc1cccc(N2CCN(C(=O)c3cn(CO)cc3-c3ccccc3)CC2)c1 [Example 72, 3-[4-(1-Hydroxymethyl-4-phenyl-1H-pyrrol-3-ylcarbonyl)piperazin-1-yl]benzonitrile] | 580 nM | 29.5 nM
5 | O=C(c1[nH]ccc1-c1ccccc1)N1CCN(c2cccc(Cl)c2)CC1 [Example 6, [4-(3-Chlorophenyl)piperazin-1-yl](3-phenyl-1H-pyrrol-2-yl)methanone] | 690 nM | 34 nM
6 | NC(=O)c1cccc(N2CCN(C(=O)c3cc[nH]c3-c3ccccc3)CC2)c1 [Example 25, [4-(3-Carboxamidophenyl)piperazin-1-yl](2-phenyl-1-H-pyrrol-3-yl)methanone] | 9600 nM | 297 nM
7 | COc1cc(OC)cc(N2CCN(C(=O)c3cncn3-c3ccccc3)CC2)c1 [Example 11, [4-(3,5-Dimethoxyphenyl)piperazin-1-yl](1-phenyl-1H-imidazol-5-yl)-methanone hydrochloride] | 2400 nM | 45.7 nM
8 | COc1cc(OC)c(O)c(N2CCN(C(=O)c3[nH]c([S+](C)[O-])nc3-c3ccccc3)CC2)c1 (stereo not drawn) [Example 38, [4-(2-Hydroxy-3,5-dimethoxyphenyl)piperazin-1-yl](2-methanesulfinyl-5-phenyl-1H-imidazol-4-yl)methanone] | 19900 nM | 2310 nM
9 | NC(=O)c1cccc(N2CCN(C(=O)c3cncn3-c3ccccc3)CC2)c1 [Example 17, [4-(3-Carboxamidophenyl)piperazin-1-yl](1-phenyl-1H-imidazol-5-yl)methanone] | 5500 nM | 536 nM
10 | COc1cc(OC)cc(N2CCN(C(=O)c3c[nH]cc3-c3ccccc3)CC2)c1 [Example 16, [4-(3,5-Dimethoxyphenyl)piperazin-1-yl](4-phenyl-1H-pyrrol-3-yl)methanone] | 2400 nM | 8.5 nM
11 | O=C(c1[nH]cnc1-c1ccccc1)N1CCN(c2cccc(Cl)c2)CC1 [Example 3, [4-(3-Chlorophenyl)piperazin-1-yl](4-phenyl-1H-imidazol-5-yl)methanone] | 1000 nM | 6.8 nM
12 | NC(=O)c1cccc(N2CCN(C(=O)c3[nH]cnc3-c3ccccc3)CC2)c1 [Example 22, [4-(3-Carboxamidophenyl)piperazin-1-yl](4-phenyl-1H-imidazol-5-yl)-methanone] | 1100 nM | 193 nM
13 | COc1cc(OC)cc(N2CCN(C(=O)c3[nH]c(C(F)(F)F)nc3-c3ccccc3)CC2)c1 [Example 62, [4-(3,5-Dimethoxyphenyl)piperazin-1-yl](2-trifluoromethyl-4-phenyl-1H-imidazol-5-yl)methanone] | 570 nM | 8 nM
14 | O=C(c1[nH]cnc1-c1ccccc1)N1CCN(c2cccnc2)CC1 [Example 10, [4-(Pyridin-3-yl)piperazin-1-yl](4-phenyl-1H-imidazol-5-yl)methanone] | 3100 nM | 88.5 nM
15 | O=C(c1[nH]cnc1-c1ccccc1)N1CCN(c2cccc(OC(F)F)c2)CC1 [Example 30, [4-(3-Difluoromethoxyphenyl)piperazin-1-yl](5-phenyl-1H-imidazol-4-yl)methanone] | 800 nM | 6.4 nM
16 | O=C(c1ncoc1-c1ccccc1)N1CCN(c2cccc(Cl)c2)CC1 [Example 2, [4-(3-Chlorophenyl)piperazin-1-yl](5-phenyl-1,3-oxazol-4-yl)methanone] | 22000 nM | 8750 nM
17 | Cn1ccc(C(=O)N2CCN(c3cccc(C(N)=O)c3)CC2)c1-c1ccccc1 [Example 50, 3-[4-(1-Methyl-2-phenyl-1H-pyrrol-3-ylcarbonyl)piperazin-1-yl]benzamide] | 3410 nM | 536 nM
18 | Cc1nc(-c2ccccc2)c(C(=O)N2CCN(c3cccc(CO)c3)CC2)[nH]1 [Example 76, [4-(3-Hydroxymethylphenyl)piperazin-1-yl](2-methyl-4-phenyl-1H-imidazol-5-yl)methanone] | 970 nM | 101 nM
19 | Cn1cc(C(=O)N2CCN(c3cccc(CO)c3)CC2)c(-c2ccccc2)c1 [Example 69] | 710 nM | 45 nM
20 | COc1cc(OC)cc(N2CCN(C(=O)c3nc(SC)[nH]c3-c3ccccc3)CC2)c1 [Example 23, [4-(3,5-Dimethoxyphenyl)piperazin-1-yl](2-methylsulfanyl-5-phenyl-1H-imidazol-4-yl)methanone] | 600 nM | 1.7 nM
21 | COc1cc(OC)cc(N2CCN(C(=O)c3[nH]c([S+](C)[O-])nc3-c3ccccc3)CC2)c1 (stereo not drawn) [Example 33, [4-(3,5-Dimethoxyphenyl)piperazin-1-yl](2-methanesulfinyl-5-phenyl-1H-imidazol-4-yl)methanone] | 1950 nM | 180 nM
22 | O=C(c1sccc1-c1ccccc1)N1CCN(c2cccc(Cl)c2)CC1 [Example 4, [4-(3-Chlorophenyl)piperazin-1-yl](3-phenylthiophen-2-yl)methanone] | 2000 nM | 52.5 nM
23 | Cn1cc(C(=O)N2CCN(c3cccc(C(N)=O)c3)CC2)c(-c2ccccc2)c1 [Example 37, 3-[4-(1-Methyl-4-phenyl-1H-pyrrol-3-yl-carbonyl)piperazin-1-yl]benzamide] | 720 nM | 14.9 nM
24 | COc1cc(OC)cc(N2CCN(C(=O)c3nc(S)[nH]c3-c3ccccc3)CC2)c1 [Example 20, [4-(3,5-Dimethoxyphenyl)piperazin-1-yl](2-mercapto-5-phenyl-1H-imidazol-4-yl)methanone] | 700 nM | 11.7 nM
25 | NC(=O)c1cccc(N2CCN(C(=O)c3[nH]ccc3-c3ccccc3)CC2)c1 [Example 39, 3-[4-(3-Phenyl-1H-pyrrol-2-ylcarbonyl)piperazin-1-yl]benzamide] | 12400 nM | 200 nM
26 | NC(=O)c1cccc(N2CCN(C(=O)c3c(-c4ccccc4)ccn3CC(=O)O)CC2)c1 [Example 73, {2-[4-(3-Carbamoylphenyl)piperazin-1-ylcarbonyl]-3-phenylpyrrol-1-yl}acetic acid] | 18400 nM | 2700 nM
27 | COc1cc(OC)cc(N2CCN(C(=O)c3[nH]c(S(C)(=O)=O)nc3-c3ccccc3)CC2)c1 [Example 67, [4-(3,5-Dimethoxyphenyl)piperazin-1-yl](2-methylsulfonyl-4-phenyl-1H-imidazol-5-yl)methanone] | 1650 nM | 2700 nM
28 | Cc1nc(-c2ccccc2)c(C(=O)N2CCN(c3cccc(C(N)=O)c3)CC2)[nH]1 [Example 59, 3-[4-(2-Methyl-5-phenyl-1H-imidazol-4-ylcarbonyl)piperazin-1-yl]benzamide] | 4660 nM | 364 nM
29 | CSc1nc(-c2ccccc2)c(C(=O)N2CCN(c3cccc(C#N)c3)CC2)[nH]1 [Example 56, 3-[4-(2-Methylsulfanyl-4-phenyl-1H-imidazol-5-ylcarbonyl)piperazin-1-yl]-benzonitrile] | 415 nM | 1.7 nM
30 | COc1cc(OC)cc(N2CCN(C(=O)c3[nH]ccc3-c3ccccc3)CC2)c1 [Example 8, [4-(3,5-Dimethoxyphenyl)piperazin-1-yl](3-phenyl-1H-pyrrol-2-yl)methanone] | 1200 nM | 2.9 nM

From patent publication US20050014765A1, “Aryl-heteroaromatic products, compositions comprising them and use” (Aventis Pharma S.A., priority 2003, published 2005)
